Reference: patent US11440913B2, “Aminoimidazopyridazines as kinase inhibitors” (BRISTOL-MYERS SQUIBB COMPANY, priority 2017, dated 2022)
Where a name gives a salt, the structure may show the parent alone. Read-outs that look alike come from different tables or passages of the source.

Assays:
[1] = target: His-GST-TVMV-hRIPK1(1-324) (Homo sapiens (Human), UniProt Q13546); assay: RIPK1 HTRF Binding Assay; conditions: HTRF binding, 1 h at rt; read-out: RIPK1 (IC50)
In short: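 HTRF probe-displacement binding: 1 nM His-GST-TVMV-hRIPK1(1-324) (baculovirus construct), 90.6 nM probe, 0.2 nM anti-GST-Tb in 20 mM HEPES, 10 mM MgCl2, 0.015% Brij-35, 4 mM DTT, 0.05 mg/mL BSA. Incubated 1 h at rt; FRET 520/495 nm ratio, inhibition relative to DMSO-only wells.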

[2] = test system: MLKL phosphorylation in HT29-L23 human colorectal adenocarcinoma cells; assay: MLKL Phosphorylation High-Content Assay; format: cell-based; conditions: 6 h, necroptosis induced with TNFα, SMAC mimetic and Z-VAD, read-out: pMLKL (IC50)
In short: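 HT29-L23 cells pretreated 30 min at 37 °C with compound (6.25 to 0.106 μM final), then necroptosis induced with TNFα 35 ng/mL, SMAC mimetic 700 nM and Z-VAD 140 nM for 6 h. Fixed cells immunostained for MLKL pS358 and imaged; IC50 and Ymax from 4-parameter logistic fit.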

Chain of His-GST-TVMV-hRIPK1(1-324) (Q13546 1-324): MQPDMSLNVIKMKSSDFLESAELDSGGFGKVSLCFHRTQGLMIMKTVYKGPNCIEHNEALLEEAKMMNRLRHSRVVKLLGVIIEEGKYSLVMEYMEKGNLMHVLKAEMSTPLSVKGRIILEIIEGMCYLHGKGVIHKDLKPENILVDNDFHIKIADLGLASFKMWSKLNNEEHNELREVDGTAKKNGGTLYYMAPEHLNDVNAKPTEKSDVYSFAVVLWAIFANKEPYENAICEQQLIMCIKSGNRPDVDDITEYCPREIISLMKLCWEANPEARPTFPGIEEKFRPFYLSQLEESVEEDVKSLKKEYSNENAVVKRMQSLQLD

SMILES | IC50 [1] [nM] | IC50 ([2]; Homo sapiens) [nM] | IC50 [2] [nM]
Cc1ncc(-c2ccc3nc(NC(=O)[C@H](C)O)cn3n2)cc1C(=O)N[C@H](C)c1cc(OC(F)(F)F)ccc1F [Example 339, N-((R)-1-(2-fluoro-5-(trifluoromethoxy)-phenyl)ethyl)-5-(2-((S)-2-hydroxypropanamido)-imidazo[1,2-b]pyridazin-6-yl)-2-methylnicotinamide] | 48 | 170 | –
CC(=O)Nc1cn2nc(-c3cnc(C)c(C(=O)NCc4cc(OC(F)(F)F)ccc4F)c3)ccc2n1 [Example 213, 5-{2-acetamidoimidazo[1,2-b]pyridazin-6-yl}-N-{[2-fluoro-5-(trifluoromethoxy)phenyl]methyl}-2-methylpyridine-3-carboxamide] | 7 | 6 | –
CC(=O)Nc1cn2nc(-c3cc(C(=O)NCc4ccccc4OC(F)(F)F)cnc3C)ccc2n1 [Example 233, 5-{2-acetamidoimidazo[1,2-b]pyridazin-6-yl}-6-methyl-N-{[2-(trifluoromethoxy)phenyl]methyl}pyridine-3-carboxamide] | 38 | 276 | –
CC(=O)Nc1cn2nc(-c3cc(C(=O)NCc4cc(F)cc(F)c4OC4CC(C)OC(C)C4)c(C)nc3C)ccc2n1 (stereo not shown) [Example 64, N-({2-[(2,6-dimethyloxan-4-yl)oxy]-3,5-difluorophenyl}methyl)-5-{2-acetamidoimidazo[1,2-b]pyridazin-6-yl}-2,6-dimethylpyridine-3-carboxamide] | 49 | 45 | –
COc1ncc(-c2ccc3nc(NC(C)=O)cn3n2)cc1C(=O)NCc1cccc(F)c1OC(C)C1CC1 (stereo not shown) [Example 135, N-{[2-(1-cyclopropylethoxy)-3-fluorophenyl]methyl}-5-{2-acetamidoimidazo[1,2-b]pyridazin-6-yl}-2-methoxypyridine-3-carboxamide] | 3 | – | 7
COc1c(F)cc(-c2ccc3nc(NC(C)=O)cn3n2)cc1C(=O)NCc1cc(OC(F)(F)F)ccc1F [Example 371, 5-{2-acetamidoimidazo [1,2-b]pyridazin-6-yl}-3-fluoro-N-{[2-fluoro-5-(trifluoromethoxy)phenyl]methyl}-2-methoxybenzamide] | 5 | 15 | –
[2H]C([2H])(Oc1c(F)cc(F)cc1CNC(=O)c1cc(-c2ccc3nc(NC(C)=O)cn3n2)cnc1Cl)C1CC1 [Example 266, 2-chloro-N-({2-[cyclopropyl(deutero)methoxy]-3,5-difluorophenyl}methyl)-5-{2-acetamidoimidazo[1,2-b]pyridazin-6-yl}pyridine-3-carboxamide, TFA] | 3 | 18 | –
CC(=O)Nc1cn2nc(-c3ccc(C)c(C(=O)NCC[C@H](O)c4ccc(Cl)cc4)c3)ccc2n1 [Example 398, N-[(3S)-3-(4-chlorophenyl)-3-hydroxypropyl]-5-{2-acetamidoimidazo [1,2-b]pyridazin-6-yl}-2-methylbenzamide] | 5 | 2 | –
COc1ncc(-c2ccc3nc(NC(C)=O)cn3n2)cc1C(=O)NCc1ccc(F)c(OCC2CC2)c1 [Example 142, N-{[3-(cyclopropylmethoxy)-4-fluorophenyl]methyl}-5-{2-acetamidoimidazo[1,2-b]pyridazin-6-yl}-2-methoxypyridine-3-carboxamide] | 29 | 181 | –
CC(=O)Nc1cn2nc(-c3cc(C(=O)N[C@@H](C)c4cc(OC(F)(F)F)ccc4F)cnc3C)ccc2n1 [Example 228, 5-{2-acetamidoimidazo[1,2-b]pyridazin-6-yl}-N-[(1S)-1-[2-fluoro-5-(trifluoromethoxy)phenyl]ethyl]-6-methylpyridine-3-carboxamide] | 16 | 193 | –
[2H]C([2H])([2H])[C@@H](NC(=O)c1c(F)ccc(-c2ccc3nc(NC(C)=O)cn3n2)c1F)c1cc(OC(F)(F)F)ccc1F [Example 380, 3-{2-acetamidoimidazo [1,2-b]pyridazin-6-yl}-2,6-difluoro-N-[(1R)-1-[2-fluoro-5-(trifluoromethoxy)phenyl](2,2,2-Â^2Hâ,f)ethyl} benzamide] | 3 | 9 | –
CC(=O)Nc1cn2nc(-c3ccc(C)c(C(=O)NCc4ccc(F)cc4C(=O)N4CCC(F)(F)C4)c3)ccc2n1 [Example 405, N-{[2-(3,3-difluoropyrrolidine-1-carbonyl)-4-fluorophenyl]methyl}-5-{2-acetamidoimidazo [1,2-b]pyridazin-6-yl}-2-methylbenzamide] | 14 | 99 | –
COc1ncc(-c2ccc3nc(NC(=O)C(C)C)cn3n2)cc1C(=O)NCc1ccc(F)c(F)c1OCC1CC1 [Example 264, N-{[2-(cyclopropylmethoxy)-3,4-difluorophenyl]methyl}-2-methoxy-5-[2-(2-methylpropanamido)imidazo[1,2-b]pyridazin-6-yl]pyridine-3-carboxamide, TFA] | 55 | – | 240
COc1ncc(-c2ccc3nc(NC(C)=O)cn3n2)cc1C(=O)NCc1cc(F)cc(F)c1OC1CCOC(C)C1 (stereo not shown) [Example 96, N-({3,5-difluoro-2-[(2-methyloxan-4-yl)oxy]phenyl}methyl)-5-{2-acetamidoimidazo[1,2-b]pyridazin-6-yl}-2-methoxypyridine-3-carboxamide] | 10 | 25 | –
CC(=O)Nc1cn2nc(-c3ccc(C)c(C(=O)NCc4c(F)cccc4-c4cnn(C)c4)c3)ccc2n1 [Example 402, 5-{2-acetamidoimidazo [1,2-b]pyridazin-6-yl}-N-{[2-fluoro-6-(1-methyl-1H-pyrazol-4-yl)phenyl]methyl}-2-methylbenzamide] | 56 | 94 | –
CC(=O)OCC(=O)Nc1cn2nc(-c3cc(C(=O)NCc4cc(OC(F)(F)F)ccc4F)c(C)nc3C)ccc2n1 [Example 327, ({6-[5-({[2-fluoro-5-(trifluoromethoxy)phenyl]methyl}carbamoyl)-2,6-dimethylpyridin-3-yl]imidazo[1,2-b]pyridazin-2-yl}carbamoyl)methyl acetate] | 5 | 25 | –
COc1ccc(-c2ccc3nc(NC(C)=O)cn3n2)c(F)c1C(=O)NCc1cc(F)ccc1C(=O)N1CCC(F)(F)C1 [Example 376] | 9 | 9 | –
COc1nc(C)c(-c2ccc3nc(NC(C)=O)cn3n2)cc1C(=O)NCc1ccccc1OC(F)(F)F [Example 19, 5-{2-acetamidoimidazo[1,2-b]pyridazin-6-yl}-2-methoxy-6-methyl-N-{[2-(trifluoromethoxy)phenyl]methyl}pyridine-3-carboxamide] | 12 | 34 | –
[2H]C([2H])([2H])Oc1ncc(-c2ccc3nc(NC(C)=O)cn3n2)cc1C(=O)NCc1cc(F)cc(F)c1OC1CCCOC1 (stereo not shown) [Example 43, N-{[3,5-difluoro-2-(oxan-3-yloxy)phenyl]methyl}-5-{2-acetamidoimidazo[1,2-b]pyridazin-6-yl}-2-(D3)methoxypyridine-3-carboxamide] | 10 | 28 | –
COc1nc(C)c(-c2ccc3nc(NC(C)=O)cn3n2)cc1C(=O)NCc1ccccc1OCC1CCC(F)(F)CC1 [Example 310, N-({2-[(4,4-difluorocyclohexyl)methoxy]phenyl}methyl)-5-{2-acetamidoimidazo[1,2-b]pyridazin-6-yl}-2-methoxy-6-methylpyridine-3-carboxamide] | 21 | 125 | –
